Counter-ions that a name gives are not always drawn. Like-named read-outs stand apart in the source and are kept apart here.
Assays:
σ1 receptors [1] = molecular target: T1, σ1 receptors (Rattus norvegicus, UniProt Q9R0C9); details: read-out: Ki at σ1 (nM) Experimental Brain/Brandel; rat brain P2, 5 nM [3H](+)-pentazocine, cell harvester
σ1 [2] = details: read-out: Ki at σ1 (nM) Literature, cited from earlier work
σ2 [3] = details: read-out: Ki at σ2 (nM) Literature, cited from earlier work
σ2 receptors [4] = molecular target: T2, σ2 receptors (Rattus norvegicus, UniProt Q5U3Y7); assay: σ2 competition binding, [3H]DTG with
T2 sequence (Q5U3Y7 1-176): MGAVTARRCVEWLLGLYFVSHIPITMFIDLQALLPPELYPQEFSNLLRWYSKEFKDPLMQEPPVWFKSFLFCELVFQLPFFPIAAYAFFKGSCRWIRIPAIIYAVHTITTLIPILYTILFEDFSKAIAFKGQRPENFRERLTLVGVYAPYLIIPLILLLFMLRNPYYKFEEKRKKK

σ2 receptors [5] = molecular target: T2, σ2 receptors; assay: σ2 competition binding, [3H]DTG with; remark: listed apart in the source
σ1 receptors [6] = molecular target: T1, σ1 receptors; assay: σ1 competition binding, [3H]
σ1 [7] = details: cited from earlier work
σ1 receptors [8] = molecular target: T1, σ1 receptors; assay: biochemical
σ2 [9] = details: read-out: Ki at σ2 (nM) Literature (reported value is IC50); Guinea-pig brain; ref Chaki, 1994; cited from earlier work
σ1 [10] = details: read-out: Ki at σ1 (nM) Literature, footnote not given, cited from earlier work
σ2 [11] = details: read-out: Ki at σ2 (nM) Literature, footnote not given, cited from earlier work
[12] = Rat brain P2 with 5 nM [3H](+)-pentazocine, ref Bowen, 1993
[13] = Rat brain P2, 3 nM [3H]DTG with 1 μM dextrallorphan, ref Bowen, 1993
[14] = read-out: Ki at σ2 (nM) Experimental Brain/Brandel, rat brain P2, 3 nM [3H]DTG with 300 nM (+)-pentazocine, cell harvester

T1 sequence (Q9R0C9 whole entry): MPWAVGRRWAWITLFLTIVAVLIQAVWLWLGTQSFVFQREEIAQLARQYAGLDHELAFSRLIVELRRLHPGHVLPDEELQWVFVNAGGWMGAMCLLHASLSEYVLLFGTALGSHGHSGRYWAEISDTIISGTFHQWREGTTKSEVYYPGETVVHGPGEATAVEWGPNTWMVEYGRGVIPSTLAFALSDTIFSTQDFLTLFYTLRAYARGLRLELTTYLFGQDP

Which results are given for `C=CCN1CCC2(C)c3cc(O)ccc3CC1C2C` (single isomer, unassigned; (+)) [(+)-SKF10, 047, (+)-N-allylnormetazocine hydrochloride]?
Ki (σ1 receptors [1]): 287 ± 36 nM; Ki (σ1 [2]; [12]): 28.7 ± 2.8 nM; Ki (σ2 [3]; [13]): 33700 nM

For `CC(C)=CCN1CCC2(C)c3cc(O)ccc3CC1C2C` (single isomer, unassigned; (-)) [(−)-pentazocine], which Ki (σ2 receptors [4]; [14]) is on record?
Its Ki is 108 ± 4.4 nM.

What about the Ki (σ2 [3]; [13]) of the same compound?
Its Ki is 108 ± 6 nM.

Which Ki (σ2 receptors [4]) does the source give for `CC(C)=CCN1CC[C@]2(C)c3cc(O)ccc3C[C@H]1[C@H]2C` [(+)-pentazocine, (+)-Pentazocine] here?
The Ki was 1410 ± 207 nM.

And the Ki (σ2 receptors [5])?
Its Ki is 1070 ± 94 nM.

What about the Ki (σ2 [3]; [13]) of the same compound?
Its Ki is 1360 ± 134 nM.

Which Ki (σ2 receptors [4]; [14]) does the source give for `c1ccc(CCN2CCCCC2)cc1` [AC927, N-phenethylpiperidine oxalate] here?
The Ki was 384 ± 34 nM.

What about the Ki (σ1 receptors [1]) of the same compound?
Its Ki is 61.2 ± 5.6 nM.

And the Ki (σ1 [2]; Rat brain P2 with 3 nM [3H](+)-pentazocine, ref Matsumoto, 2008)?
The Ki was 30 ± 2 nM.

And the Ki (σ2 [3]; Rat brain P2, 3 nM [3H]DTG with 300 nM (+)-pentazocine, ref Matsumoto, 2008)?
Its Ki is 138 ± 18 nM.

Which Ki (σ1 receptors [6]) does the source give for `CN1CCN(CCc2ccc(Cl)c(Cl)c2)CC1` [BD1063, 1-[2-(3,4-dichlorophenyl)ethyl]-4-methylpiperazine dihydrochloride] here?
The Ki was 33.4 ± 4.1 nM.

And the Ki (σ1 [7]; read-out: Ki at σ1 (nM) Literature, Guinea-pig brain P2 with 3 nM [3H](+)-pentazocine, ref Matsumoto, 1995)?
The Ki was 9.15 ± 1.28 nM.

What about the Ki (σ1 receptors [8]) of the same compound?
Its Ki is 15 ± 2.1 nM.

Which Ki (σ1 receptors [6]) does the source give for `CCCN(CCC)CCc1ccc(OC)c(OCCc2ccccc2)c1` [NE100, 4-methoxy-3-(2-phenylethoxy)-N,N-dipropylbenzeneethanamine hydrochloride] here?
The Ki was 2 ± 0.5 nM.

What about the Ki (σ2 receptors [4]) of the same compound?
The Ki was 95.5 ± 1 nM.

What about the Ki (σ2 receptors [5]) of the same compound?
The Ki was 36.2 ± 1.1 nM.

What about the IC50 (σ1 [7]; read-out: Ki at σ1 (nM) Literature (reported value is IC50), Guinea-pig brain, ref Chaki, 1994) of the same compound?
Its IC50 is 1.54 ± 0.26 nM.

And the IC50 (σ2 [9])?
Its IC50 is 84.6 ± 32.9 nM.

And the Ki (σ1 receptors [8])?
Its Ki is 2.8 ± 0.5 nM.

With `CCCc1ccc2c(c1)sc(=O)n2CCN1CCCCCC1` [SN56, 3-(2-(azepan-l-yl)ethyl)-6-propylbenzo[d]thiazol-2(3H)-one] as the compound, how does the Ki (σ1 receptors [6]; read-out: Ki (nM) σ1, Table 2, 96-well filtration method, rat liver P2, 5 nM [3H](+)-pentazocine) read?
The Ki was 1.6 ± 0.1 nM.

And the “Ki σ2/Ki σ1” value (σ1 receptors [6]; selectivity ratio for σ1 versus σ2, 96-well method)?
Its value is 168.

And the Ki (σ2 receptors [4]; [14])?
Its Ki is 627 ± 115 nM.

And the Ki (σ1 receptors [1])?
Its Ki is 1.7 ± 0.1 nM.

What about the Ki (σ1 [10]; ref h) of the same compound?
Its Ki is 0.56 nM.

What about the Ki (σ2 [11]; ref h) of the same compound?
Its Ki is greater than 1000 nM.

Which Ki (σ1 receptors [6]) does the source give for `COc1ccc2c(c1)[C@]13CCCC[C@@H]1[C@H](C2)N(C)CC3` [dextromethorphan, dextromethorphan hydrobromide] here?
Its Ki is 214 ± 15 nM.

And the Ki (σ2 receptors [4])?
Its Ki is greater than 10000 nM.

What about the Ki (σ2 receptors [5]) of the same compound?
The Ki was greater than 10000 nM.

And the Ki (σ1 [10]; ref g)?
The Ki was 652 ± 33 nM.

What about the Ki (σ1 receptors [8]) of the same compound?
Its Ki is 403 ± 22 nM.

With `COCCCC/C(=N\OCCN)c1ccc(C(F)(F)F)cc1` [fluvoxamine, fluvoxamine maleate] as the compound, how does the Ki (σ1 [10]; ref e) read?
Its Ki is 36 nM.

And the Ki (σ2 [11]; ref e)?
The Ki was 8440 nM.

Which results are given for `CC(=O)[C@H]1CC[C@H]2[C@@H]3CCC4=CC(=O)CC[C@]4(C)[C@H]3CC[C@]12C` [progesterone]?
Ki (σ1 receptors [6]): 99.7 ± 3.1 nM; Ki (σ2 receptors [4]): > 10000 nM; Ki (σ2 receptors [5]): > 10000 nM; Ki (σ1 [10]; ref f): 338 ± 8 nM; Ki (σ1 receptors [8]): 234 ± 4.4 nM

For `C[C@@H]1CN(CCCn2c3ccccc3c3ccccc32)C[C@H](C)N1` [rimcazole, rimcazole dihydrochloride monohydrate], which Ki (σ2 receptors [4]) is on record?
Its Ki is 1570 ± 154 nM.

And the Ki (σ2 receptors [5])?
Its Ki is 719 ± 72 nM.

And the Ki (σ1 [10]; ref g)?
Its Ki is 867 ± 185 nM.

From PMC3726061 (Journal of pharmaceutical and biomedical analysis, 2012)
